A short description of data set [1]: physchem. Conditions: simulated gastric fluid, thermodynamic from solid.
The nature of data set [2]: Solubility in biorelevant media (FeSSIF, FaSSIF, FaSSGF, FeSSGF).
A short description of data set [3]: Solubility of salt forms and free base in water, SGF, SIF and 0.5% HPMC in […] Tween 80.
Data set [4] in a line: Solid state stability of salt forms and free base. The format is physicochemical.
A short description of data set [5]: Dynamic vapor sorption (hygroscopicity). Conditions: DVS; listed as monohydrate free base. The format is physicochemical. How it is done:
Dynamic vapor sorption (DVS) was measured using DVS advantage (Surface Measurement Systems Ltd). The samples were tested under isotherm (25° C.) at a targeted RH of 0 to 95% full cycle in step mode. For an isotherm test, the chamber temperature was maintained by a water bath at constant 25.0±1.0° C. The relative humidity in the sample chamber was generated by combining different flows of wet and dry nitrogen with variable flow rates. The analysis was performed in 10% RH increments. Sampling rate was 1 sec save data rate is 20 sec. The dm/dt (%) value was set at 0.001 with a dm/dt window of 5 min., a minimum stability duration time of 10 min, and a maximum stage time of 180 min. The sample's equilibrium weight corresponding to each RH was recorded. A sorption isotherm was obtained by plotting equilibrium moisture content versus RH.
Hygroscopicity was determined on a Surface Measurement Systems DVS. A sample size of 5-20 mg was loaded into the DVS instrument sample pan and the sample was analyzed on a DVS automated sorption analyzer at room temperature. The relative humidity was increased from 0% to 90% RH at 10% RH step, then decreased in a similar manner to accomplish a full adsorption/desorption cycle.

Data set [6] in a line: Stability of free base in solution and in solid state under stress conditions. Type of data set: physicochemical.
Data set [7] in a line: physchem. Conditions: FaSSGF, fassgf or other biorelevant.

In brackets after ≈: the same amount, converted by molar mass. Read-outs that look alike come from different tables or passages of the source. Some results are limits rather than exact numbers.

As usually defined, the thermodynamic solubility is the concentration in solution at equilibrium with solid. What is called solubility is the concentration that dissolves in the medium under given conditions. High values mean a readily soluble substance, low ones a poorly soluble substance. Regarding `C[C@]1(C(N)=O)CC[C@@H](n2c(Nc3c(Cl)cc(Cl)cc3Cl)nc3cnc(N[C@@H]4CCOC[C@H]4F)nc32)CC1` [Free Base], the “Conc. at 24 Hrs” value is 3 µg/mL. In the data set “physchem [1]”, this molecule registered a thermodynamic solubility at 24 h of 3480 µg/mL (≈ 6.1 mM). Further, in data set [2] (FaSSGF), the pH is recorded as 2.77. Besides, the pH in data set [2] (FaSSIF) worked out at 6.37. Further, the pH in data set [2] (FeSSGF) is listed as 6.23. This molecule also returned a pH in data set [2] (FeSSIF) of 4.95. In addition, the pH at final in data set [3] (0.5% HPMC/[…] Tween80) came to 4.23. The pH at final in data set [3] (SGF) was determined as 1.93. The pH at final in data set [3] (SIF) is listed as 7.33. Further, in data set [3] (Water), the pH at final is listed as 8.11. Moreover, the “solid state stability (in words)” value in data set [4] was “chemically and physically stable in solid state”. Further, the “Physical (40° C./75% RH)” value in data set [4] (40° C./75% RH) is given as “Stable”. In data set [4] (60° C.), the “Chemical (60° C.) RRT2.2” value is on record as <0.03% and the “Physical (60° C.)” value is listed as “Dehydration (−),”. In addition, the “Conc. at 24 Hrs” value (pH 4.23) turned out to be 178 µg/mL. The “hygroscopicity (in words)” value in data set [5] is reported as “slightly hygroscopicity”. In data set [6], the “temperature above which crystal form of monohydrate changes” value is > 60 °C. In addition, in data set [6] (pH 1.2 to 7.5, 40° C.), the stability in solution result is recorded as “stable”. In addition, in data set [6] (solid state, stress conditions), the “chemical and physical stability in solid state under stress conditions” value is given as “up to seven weeks”. This molecule also had a solubility in the data set “physchem [7]” of 3850 µg/mL (≈ 6.74 mM).

(Values after patent US10513519B2, “Solid forms of (1S,4S)-4-(2-(((3S,4R)-3-fluorotetrahydro-2H-pyran-4-yl)amino)-8-((2,4,6-trichlorophenyl)amino)-9H-purin-9-yl)-1-methylcyclohexane-1-carboxamide and methods of their use” (Signal Pharmaceuticals, LLC, priority 2016, dated 2019).)
